Laboratory results: patent US20210308101A1, “METHODS OF TREATING FIBROMYALGIA” (Aptinyx Inc., priority 2019, published 2021)

Tested on: subjects with fibromyalgia
Experiment: Brief Pain Inventory - Short Form (BPI-SF)
Type: in vivo, human
Details: not statistically significant
Text: As used herein, “Brief Pain Inventory” (BPI)—Short Form is a brief, simple patient-completed numeric rating scale that assesses the severity of pain (Severity scale), its impact on daily functioning (Interference scale), and other aspects of pain (e.g., location of pain, relief from medications). A short form version of the BPI, including the 4-item pain Severity scale (Worst Pain, Least Pain, Average Pain, and Pain Now) and the 7-item pain Interference scale (General Activity, Mood, Walking Ability, Normal Work, Relations with Other People, Sleep, Enjoyment of Life) were the main BPI-Short Form analyses. […] If at least 3 of the 4 Severity items have a reported score, then the Pain Severity Index was the calculated mean. Otherwise, the Pain Severity Index was set to missing. […] Otherwise, the Pain Interference Index was set to missing. […] The Pain Severity Index and the Pain Interference Index were referred to as composite scores.
There may be dates in which worst pain in the last 24 hours has scores that are less than the least pain in the last 24 hours and/or right now pain scores. Also, the least pain in the last 24 hours scores may be greater than the worst pain in the last 24 hours and/or right now pain scores. This may be due to the collection of the data that cannot be changed due to the subject's confusion of the three scores. The Pain Severity Index score equally distributes all these three scores and the average pain score. Therefore, the Pain Severity Index score is not impacted by any of these scores being mixed up. As a result, the scores were analyzed based on the values collected.
The 2 composite scores took on values ranging from 0 to 10 and were rounded off by one number after the decimal point. A total pain score for BPI-Short Form was not calculated. The BPI-Short Form assessment was collected and analyzed at visits Screening, Day 1, Week 2, Week 4, Week 6, and Follow-up (Week 7). The observed composite scores, changes from baseline, and changes from treatment periods were summarized using descriptive statistics. Additionally, the treatment group comparisons were analyzed using the paired t-test and nonparametric Wilcoxon signed-rank test. All BPI-Short Form data collected and the calculated composite scores at each visit were presented in a subject listing. […] Have you had pain other than these everyday kinds of pain today?” is a categorical response (yes/no). […] This question was included in the descriptive statistics, but was not analyzed using any paired t-test and nonparametric Wilcoxon signed-rank test comparisons. • BPI-Short Form question 2, “On the diagram, shade in the areas where you feel pain. […]

[1] = Week 2 (placebo) to Week 4 (NYX-2925 20 mg)
[2] = Week 2 (placebo) to Week 6 (NYX-2925 200 mg)

Structure (SMILES): CC(C)C(=O)N1CCC[C@]12CN([C@H](C(N)=O)[C@@H](C)O)C2=O [NYX-2925, (2S, 3R)-3-hydroxy-2-((R)-5-isobutyryl-1-oxo-2,5-diazaspiro[3.4]octan-2-yl)butanamide]
- BPI-SF Pain Interference Index score, mean change [1]: −0.04
- BPI-SF Pain Severity Index score, mean change [1]: −0.22
- BPI-SF Pain Interference Index score, mean change [2]: −0.66
- BPI-SF Pain Severity Index score, mean change [2]: −0.27
